# Laboratory results: PubChem BioAssay AID2060627 (Molecular Pharmacology Branch, DTP, NCI, 2025)
# Test system: 156681-154-R-J1-PDC complex spheroid viability
# Experiment: Anticancer human tumor 156681-154-R-J1-PDC patient-derived melanoma cell line growth inhibition [CLK]
# Conditions: for IC50: curve of first compound; for viability, T/C: stronger effect = lower value
# From the text: A high-throughput screen of multi-cell type tumor spheroids was designed to identify active combinations of […] and targeted small molecules. Complex spheroids include a stromal component modeled by human endothelial cells (HUVEC) and fibroblasts modeled by human mesenchymal stem cells (MSCs). The concentration ranges selected for each drug and investigational agent were based upon clinically achievable concentrations if the clinical Cmax of the agent was known.
# Compounds. The drugs and investigational agents: cirtuvivint (SM08502; NSC835563), CC-671 (NSC850746), vemurafenib (NSC761431), tapotoclax (NSC804041), sotorasib (NSC818433), adagrasib (NSC831453), MRTX-1133 (NSC836407), BAY2416964 (NSC825713), copanlisib (NSC816437), inavolisib (NSC800729), abemaciclib (NSC768073), osimertinib (NSC779217), entinostat (NSC756642), eltanexor (KPT-8602, NSC794443), venetoclax (NSC766270), ceralasertib (NSC777638), bortezomib (NSC756655), olaparib (NSC753686), talazoparib (NSC767125), alisertib (NSC759677), peposertib (NSC802822), gemcitabine (NSC613327), 5-fluorouracil (NSC19893), SN-38 (NSC673596), oxaliplatin (NSC266046), paclitaxel (NSC125973), and doxorubicin (NSC123127), were obtained from the National Cancer Institute (NCI) Developmental Therapeutics Program Chemical Repository. The FDA-approved anticancer drug set is available from the Developmental Therapeutics Program at https://dtp.cancer.gov/organization/dscb/obtaining/available plates.htm. […] The stock solutions were prepared in dimethyl sulfoxide (DMSO, Sigma-Aldrich, St. Louis, MO, cat. D2650), except for the platinum complexes which were prepared in saline (Quality Biological, Gaithersburg, MD, cat. 114-055-101), at 800-fold the tested concentration and stored at -70 degrees C prior to their use. All drugs and investigational agents were tested over a range starting from a high concentration at or near the clinical Cmax and decreasing in half-log increments. If the clinical Cmax for an agent had not been determined, the highest concentration tested was 10 microM.
# Cell Culture. All cells were maintained in an incubator at 37 degrees C and 5% CO2 with 95% humidity. The PDC lines were cultured according to standard operating procedures established by the NCI PDMR. Briefly, all PDCs were thawed and cultured in Matrigel-coated flasks prepared with a working solution of 1X Ham's F-12 nutrient mix, without supplementation (Invitrogen, Waltham, MA, cat. 11765054), 100 U/mL penicillin-streptomycin (Invitrogen, cat. 15140122), and 2.5% Matrigel (Corning Inc., Corning, NY, cat. 354248) for the first three passages. The 947758-054-R-J2-PDC line was cultured in 6B/Colon 1A media, which includes advanced DMEM/F-12 (Thermo Fisher Scientific, cat. 12634028), 10 mM HEPES (Thermo Fisher Scientific, cat. 15630080), 1X GlutaMAX supplement (Thermo Fisher Scientific, cat. 35050061), 0.1 mg/mL primocin (InvivoGen, cat. ant-pm-2), 10% defined fetal bovine serum, heat inactivated (HyClone Laboratories Inc., cat. SH30070.03HI), 1.25 mM N-Acetyl-L-cysteine (Sigma-Aldrich, cat. A9165), 10 mM nicotinamide (Sigma-Aldrich, cat. N0636), 1X B-27 supplement (Thermo Fisher Scientific, cat. 17504044), 1X N-2 supplement (Thermo Fisher Scientific, cat. 17502048), and 10 microM Y-27632 dihydrochloride (Tocris Bioscience, cat. 1254). The 876862-298-R-J1-PDC was cultured in 6E media, which includes all 6B/Colon 1A media components plus 50% L-WRN conditioned media (ATCC, cat. CRL-3276), 50 ng/mL recombinant human EGF recombinant protein (hEGF; Thermo Fisher Scientific, cat. PHG0311), 10 ng/mL recombinant human fibroblast growth factor 10 (hGFG-10; PeproTech, cat. 100-26), 1 ng/mL recombinant human fibroblast growth factor 2 (hFGF-2; PeproTech, cat. 100-18B), and 1 µM prostaglandin E2 (PGE2; Tocris, cat. 2296). The 227483-062-R1-J1-PDC line was cultured in Panc media, containing all 6E components except hFGF-2, with the addition of 500 nM SB-431542 (Selleckchem, cat. S1067) and 10 nM gastrin (Tocris, cat. 3006). […]
# [1] = second compound 0.0316 µM, first compound 0.0316 µM
# [2] = second compound 0.0316 µM, first compound 0.1 µM
# [3] = second compound 0.0316 µM, first compound 0.316 µM
# [4] = second compound 0.0316 µM, first compound 1 µM
# [5] = second compound 0.1 µM, first compound 0.0316 µM
# [6] = second compound 0.1 µM, first compound 0.1 µM
# [7] = second compound 0.1 µM, first compound 0.316 µM
# [8] = second compound 0.1 µM, first compound 1 µM
# [9] = second compound 0.316 µM, first compound 0.0316 µM
# [10] = second compound 0.316 µM, first compound 0.1 µM
# [11] = second compound 0.316 µM, first compound 0.316 µM
# [12] = second compound 0.316 µM, first compound 1 µM
# [13] = second compound 1 µM, first compound 0.0316 µM
# [14] = second compound 1 µM, first compound 0.1 µM
# [15] = second compound 1 µM, first compound 0.316 µM
# [16] = second compound 1 µM, first compound 1 µM
# [17] = second compound 3.16 µM, first compound 0.0316 µM
# [18] = second compound 3.16 µM, first compound 0.1 µM
# [19] = second compound 3.16 µM, first compound 0.316 µM
# [20] = second compound 3.16 µM, first compound 1 µM
# [21] = second compound 10 µM, first compound 0.0316 µM
# [22] = second compound 10 µM, first compound 0.1 µM
# [23] = second compound 10 µM, first compound 0.316 µM
# [24] = second compound 10 µM, first compound 1 µM
# [25] = second compound 0.0316 µM, first compound 0.00316 µM
# [26] = second compound 0.0316 µM, first compound 0.01 µM
# [27] = second compound 0.1 µM, first compound 0.00316 µM
# [28] = second compound 0.1 µM, first compound 0.01 µM
# [29] = second compound 0.316 µM, first compound 0.00316 µM
# [30] = second compound 0.316 µM, first compound 0.01 µM
# [31] = second compound 1 µM, first compound 0.00316 µM
# [32] = second compound 1 µM, first compound 0.01 µM
# [33] = second compound 3.16 µM, first compound 0.00316 µM
# [34] = second compound 3.16 µM, first compound 0.01 µM
# [35] = second compound 10 µM, first compound 0.00316 µM
# [36] = second compound 10 µM, first compound 0.01 µM
# 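Note: spheroids exposed to the agents for seven days.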
# 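Throughout, for viability, T/C: 100% = DMSO vehicle control viability.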
smiles,measurement,setting,value
CC(Nc1ccc2c(c1)OCCn1cc(N3C(=O)OCC3C(F)F)nc1-2)C(N)=O (stereo unspecified) + CN1CCN(c2cc(C(=O)Nc3cc4cc(-c5cnn(C)c5)ccc4cn3)ccn2)CC1,IC50,second compound 0.0316 µM,0.302 µM
same,IC50,second compound 0.1 µM,0.241 µM
same,IC50,second compound 0.316 µM,< 0.0316 µM
same,IC50,second compound 1 µM,< 0.0316 µM
same,IC50,second compound 3.16 µM,< 0.0316 µM
same,IC50,second compound 10 µM,< 0.0316 µM
same,"viability, T/C",[1],85.4%
same,"viability, T/C",[2],67%
same,"viability, T/C",[3],49.4%
same,"viability, T/C",[4],34%
same,"viability, T/C","second compound 0.0316 µM, first compound 3.16 µM",30%
same,"viability, T/C","second compound 0.0316 µM, first compound 10 µM",20%
same,"viability, T/C",[5],73.4%
same,"viability, T/C",[6],65.6%
same,"viability, T/C",[7],43.5%
same,"viability, T/C",[8],29.9%
same,"viability, T/C","second compound 0.1 µM, first compound 3.16 µM",20%
same,"viability, T/C","second compound 0.1 µM, first compound 10 µM",13.7%
same,"viability, T/C",[9],21.1%
same,"viability, T/C",[10],15.7%
same,"viability, T/C",[11],15%
same,"viability, T/C",[12],6.71%
same,"viability, T/C","second compound 0.316 µM, first compound 3.16 µM",4.44%
same,"viability, T/C","second compound 0.316 µM, first compound 10 µM",4.8%
same,"viability, T/C",[13],0.14%
same,"viability, T/C",[14],0.42%
same,"viability, T/C",[15],0.1%
same,"viability, T/C",[16],0.05%
same,"viability, T/C","second compound 1 µM, first compound 3.16 µM",0.4%
same,"viability, T/C","second compound 1 µM, first compound 10 µM",0.2%
same,"viability, T/C",[17],0.05%
same,"viability, T/C",[18],1.73%
same,"viability, T/C",[19],2.06%
same,"viability, T/C",[20],0.08%
same,"viability, T/C","second compound 3.16 µM, first compound 3.16 µM",1.56%
same,"viability, T/C","second compound 3.16 µM, first compound 10 µM",1.84%
same,"viability, T/C",[21],0.11%
same,"viability, T/C",[22],0.1%
same,"viability, T/C",[23],1.26%
same,"viability, T/C",[24],2.64%
same,"viability, T/C","second compound 10 µM, first compound 3.16 µM",2.45%
same,"viability, T/C","second compound 10 µM, first compound 10 µM",1.35%
CCN1CCN(Cc2ccc(Nc3ncc(F)c(-c4cc(F)c5nc(C)n(C(C)C)c5c4)n3)nc2)CC1 + CN1CCN(c2cc(C(=O)Nc3cc4cc(-c5cnn(C)c5)ccc4cn3)ccn2)CC1,IC50,second compound 0.0316 µM,0.665 µM
same,IC50,second compound 0.1 µM,0.807 µM
same,IC50,second compound 0.316 µM,< 0.00316 µM
same,IC50,second compound 1 µM,< 0.00316 µM
same,IC50,second compound 3.16 µM,< 0.00316 µM
same,IC50,second compound 10 µM,< 0.00316 µM
same,"viability, T/C",[25],97%
same,"viability, T/C",[26],94.9%
same,"viability, T/C",[1],87.5%
same,"viability, T/C",[2],77.6%
same,"viability, T/C",[3],71.8%
same,"viability, T/C",[4],39.1%
same,"viability, T/C",[27],96.2%
same,"viability, T/C",[28],76.2%
same,"viability, T/C",[5],70.6%
same,"viability, T/C",[6],89.9%
same,"viability, T/C",[7],67.2%
same,"viability, T/C",[8],46.1%
same,"viability, T/C",[29],21.6%
same,"viability, T/C",[30],21.1%
same,"viability, T/C",[9],17.8%
same,"viability, T/C",[10],23.1%
same,"viability, T/C",[11],18.7%
same,"viability, T/C",[12],9.12%
same,"viability, T/C",[31],0.15%
same,"viability, T/C",[32],0.55%
same,"viability, T/C",[13],3.58%
same,"viability, T/C",[14],0.43%
same,"viability, T/C",[15],1.38%
same,"viability, T/C",[16],0.47%
same,"viability, T/C",[33],0.8%
same,"viability, T/C",[34],1.88%
same,"viability, T/C",[17],0.12%
same,"viability, T/C",[18],1.66%
same,"viability, T/C",[19],2.74%
same,"viability, T/C",[20],1.56%
same,"viability, T/C",[35],0.1%
same,"viability, T/C",[36],0.55%
same,"viability, T/C",[21],0.69%
same,"viability, T/C",[22],0.18%
same,"viability, T/C",[23],0.5%
same,"viability, T/C",[24],3.25%
COc1c(OCCCN2CCOCC2)ccc2c3n(c(=NC(=O)c4cnc(N)nc4)nc12)CCN3 + CN1CCN(c2cc(C(=O)Nc3cc4cc(-c5cnn(C)c5)ccc4cn3)ccn2)CC1,IC50,second compound 0.0316 µM,0.016 µM
same,IC50,second compound 0.1 µM,0.0129 µM
same,IC50,second compound 0.316 µM,< 0.00316 µM
same,IC50,second compound 1 µM,< 0.00316 µM
same,IC50,second compound 3.16 µM,< 0.00316 µM
same,IC50,second compound 10 µM,< 0.00316 µM
same,"viability, T/C",[25],76.1%
same,"viability, T/C",[26],58.8%
same,"viability, T/C",[1],36.8%
same,"viability, T/C",[2],12.7%
same,"viability, T/C",[3],2.94%
same,"viability, T/C",[4],0.44%
same,"viability, T/C",[27],76.2%
same,"viability, T/C",[28],55.5%
same,"viability, T/C",[5],29.6%
same,"viability, T/C",[6],10.3%
same,"viability, T/C",[7],1.15%
same,"viability, T/C",[8],0.6%
same,"viability, T/C",[29],18.1%
same,"viability, T/C",[30],15%
same,"viability, T/C",[9],6.26%
same,"viability, T/C",[10],2.42%
same,"viability, T/C",[11],1.79%
same,"viability, T/C",[12],0.42%
same,"viability, T/C",[31],0.13%
same,"viability, T/C",[32],0.95%
same,"viability, T/C",[13],0.12%
same,"viability, T/C",[14],0.27%
same,"viability, T/C",[15],0.51%
same,"viability, T/C",[16],0.4%
same,"viability, T/C",[33],0.05%
same,"viability, T/C",[34],0.16%
same,"viability, T/C",[17],0.12%
same,"viability, T/C",[18],1.29%
same,"viability, T/C",[19],1.19%
same,"viability, T/C",[20],2.81%
same,"viability, T/C",[35],0.04%
same,"viability, T/C",[36],1.39%
same,"viability, T/C",[21],2.94%
same,"viability, T/C",[22],0.1%
same,"viability, T/C",[23],0.81%
same,"viability, T/C",[24],0.71%
